Where “and” joins values, the source holds several entries; their conditions need not be identical. Identical values can stand only once. Like-named read-outs stand apart in the source and are kept apart here.
What was measured:
[1] = Copper-binding ability: inhibition of cysteine autooxidation; format: biochemical; details: 100 μM Cys, 100 μM coumarin-3-carboxylic acid, 100 μM CuSO4
Method: The copper-binding ability of tetrathiotungstate salts was determined according to the ability of tetrathiotungstate salts to inhibit cysteine autooxidation as reported in Table 2 below.

[2] = Moisture stability of tetrathiotungstate salts; format: physicochemical
angiogenesis = assay: Matrigel plug assay (inhibition of angiogenesis); format: in vivo, athymic nude mice; details: FIG. 1
Method: This assay is performed essentially as described by Passaniti et al., Lab Invest. 1992, 67:519-528. Ice-cold Matrigel® (e.g., 500 μL) (Collaborative Biomedical Products, Inc., Bedford, Mass.) is mixed with heparin (e.g., 50 μg/ml), FGF-2 (e.g., 400 ng/ml) and the compound to be tested. In some assays, bFGF may be substituted with tumor cells as the angiogenic stimulus. The Matrigel® mixture is injected subcutaneously into 4-8 week-old athymic nude mice at sites near the abdominal midline, preferably 3 injections per mouse. The injected Matrigel®b forms a palpable solid gel. […] Hemoglobin (Hb) levels are determined using Drabkin's solution (e.g., obtained from Sigma) according to the manufacturers' instructions. […] The amount of fluorescence in the dispersed plug which is determined fluorimetrically serves as a measure of angiogenesis in the plug. […]
Ammonium tetrathiotungstate was assayed in the Matrigel® plug assay as described in Section 5.4.7, supra. Two positive controls were used with positive control 1 measured five days after implantation when treatment began and […] measured five days after implantation when treatment ended. Two negative controls were used with negative control 1 measured five days after implantation when treatment began and […] measured five days after implantation when treatment ended.

[3] = room temperature, 95% relative humidity, two weeks, purity by absorbance, * = partially soluble, ‡ = average of 2 data points

| Compound | % inhibition ([1]; inhibitor concentration 10 μM) | % inhibition ([1]; inhibitor concentration 50 μM) | % degradation [2, 3] | % inhibition ([1]; inhibitor concentration 1 μM) | % degradation [2] | inhibition of angiogenesis (angiogenesis) |
| --- | --- | --- | --- | --- | --- | --- |
| Tetrathiotungstate, ethylenebis(trimethylammonium) | 84.66% | 89.60% | 8.6* % |  |  |  |
| C[N+](C)(C)CCOC(=O)CCCCCCC(=O)OCC[N+](C)(C)C.[S]=[W](=[S])([S-])[S-] [Tetrathiotungstate, suberyldicholine] | 77.83% |  | 18.4* % | 67.74% |  |  |
| NCCNCCNCCN [trientine, reference compound] |  | 39.71% |  | 0.00% |  |  |
| C[N+](C)(C)CCO.C[N+](C)(C)CCO.[S]=[W](=[S])([S-])[S-] [Tetrathiotungstate, bis(choline)] |  | 92.54% and 91.99% |  |  | 3.0% |  |
| Tetrathiotungstate, (succinylcholine) | 81.38% |  | 23.3* % | 66.06% |  |  |
| CCn1cc[n+](C)c1.CCn1cc[n+](C)c1.[S]=[W](=[S])([S-])[S-] [Tetrathiotungstate, bis(l-ethyl-3-methyl-1H-imidazolium)] |  | 91.16% | 1.3% |  |  |  |
| CC[N+](CC)(CC)c1ccccc1.CC[N+](CC)(CC)c1ccccc1.[S]=[W](=[S])([S-])[S-] [Tetrathiotungstate, bis(triethylphenyl ammonium)] |  | 91.32% | −0.12% |  |  |  |
| Tetrathiotungstate, pentane-1,5-bis(trimethylammonium) |  | 90.69% |  |  |  |  |
| Tetrathiotungstate, propane-1,3-bis(trimethylammonium) | 85.53% | 92.95% |  |  |  |  |
| C[N+](C)(C)CCO.C[N+](C)(C)CCO.[S]=[Mo](=[S])([S-])[S-] [Tetrathiomolybdate, bis (choline), reference compound] |  |  |  |  | 36 ± 2% |  |
| C[n+]1ccccc1C=NO.C[n+]1ccccc1C=NO.[S]=[W](=[S])([S-])[S-] [Tetrathiotungstate, bis(2-hydroxyiminomethyl-1-methyl-pyridinium)] |  | 91.15% | 5.6% |  |  |  |
| Tetrathiotungstate, butane-1,4-bis(trimethylammonium) | 87.32% | 91.75% |  |  |  |  |
| C[N+](C)(C)c1ccccc1.C[N+](C)(C)c1ccccc1.[S]=[W](=[S])([S-])[S-] [Tetrathiotungstate, bis(trimethylphenylammonium)] |  | 91.53% | −0.46% |  |  |  |
| CC(=O)OCC[N+](C)(C)C.CC(=O)OCC[N+](C)(C)C.[S]=[W](=[S])([S-])[S-] [Tetrathiotungstate, bis(acetylcholine)] |  | 90.36% |  |  | 2.4% |  |
| CC(=O)OC(C)C[N+](C)(C)C.CC(=O)OC(C)C[N+](C)(C)C.[S]=[W](=[S])([S-])[S-] (stereo not drawn) [Tetrathiotungstate, bis(acetyl-β-methylcholine)] |  | 90.40% | 4.2% |  |  |  |
| Tetrathiotungstate, bis(ammonium) [reference compound] |  | 95.94% | −0.46% |  |  | about 34% |
| [NH4+].[NH4+].[SH-].[SH-].[S]=[Mo]=[S] [Tetrathiomolybdate, bis(ammonium), reference compound] | 87.71% and 76.69% | 94.24% |  | 68.48% |  |  |
| C[N+](C)(C)Cc1ccccc1.C[N+](C)(C)Cc1ccccc1.[S]=[W](=[S])([S-])[S-] [Tetrathiotungstate, bis(benzzyltrimethylammonium)] |  | 94.62% | 0.41% |  |  |  |
| C[N+]1(C)CCCC1.C[N+]1(C)CCCC1.[S]=[W](=[S])([S-])[S-] [Tetrathiotungstate, bis(1,1-dimethylpyrrolidinium)] |  |  | 0.04% |  |  |  |
| Cc1cc[n+](C)cc1.Cc1cc[n+](C)cc1.[S]=[W](=[S])([S-])[S-] [Tetrathiotungstate, bis(1,4-dimethylpyridinium)] |  | 89.98% and 89.66% | 2.0% |  |  |  |

Source: patent US7851505B2, “Thiotungstate analogues and uses thereof” (priority 2003, dated 2010)
